In PMC4143145 (European journal of medicinal chemistry, 2014):

Experiments:
[1] = tested on: Burkitt lymphoma CA46 cells; test: Growth inhibition of Burkitt lymphoma CA46 cells; type: cell-based; settings: Homo sapiens, CA46, read-out: IC50 in CA46 cells
tubulin [2] = settings: highest concentration examined 100 µM; cited from earlier work
tubulin [3] = settings: cited from earlier work
[4] = tested on: PBL not stimulated with PHA; test: Cytotoxicity for resting peripheral blood lymphocytes; type: cell-based; settings: Homo sapiens, Lymphocyte, read-out: IC50 PBLresting
HeLa cells [5] = test: Immunofluorescence of the microtubule network; type: cell-based, human; settings: 25 µM, 24 h
cdc25C = test: Western blot in HeLa cells; type: cell-based, human; settings: 25 µM; for cdc25c expression: 48 h; for cdc25C forms: 24 h
Bcl-2 = test: Western blot in HeLa cells; type: cell-based, human; settings: 25 µM, 24 h
Mcl-1 = test: Western blot in HeLa cells; type: cell-based, human; settings: 25 µM, 24 h
HeLa cells [6] = test: Annexin-V/PI flow cytometry; type: cell-based, human; settings: 24 or 48 h
cyclin B = test: Western blot in HeLa cells; type: cell-based, human; settings: 25 µM
aurora kinase A = test: Western blot in HeLa cells; type: cell-based, human; settings: 25 µM, 24 h
γ-H2A.X = test: Western blot in HeLa cells; type: cell-based, human; settings: 25 µM, 24 h

SMILES | IC50 [4] | cells with induced spherical morphology (microtubule rearrangement) (HeLa cells [5]) | cdc25c expression (cdc25C) | Mcl-1 band (Mcl-1) | cyclin B expression (cyclin B; 24 h) | cyclin B expression (cyclin B; 48 h) | aurora kinase levels (aurora kinase A) | expression of γ-H2A.X (γ-H2A.X) | further results
COc1ccc(/C=C\c2cc(OC)c(OC)c(OC)c2)cc1O [CA-4, combretastatin A-4] | – | – | – | – | – | – | – | – | IC50 [1]: 0.02 ± 0.007 µM
COc1ccc2c(c1OC)C(=O)O[C@@H]2[C@H]1c2c(cc3c(c2OC)OCO3)CCN1C [Compound 1, (S)-6,7-dimethoxy-3-((R)-4′-methoxy-6′-methyl-5′,6′,7′,8′-tetrahydro[1,3]dioxolo-[4,5]isoquinolin-5′-yl)isobenzofuran-1(3H)-one] | – | – | – | – | – | – | – | – | inhibition of colchicine binding (fluorescence) (tubulin [2]): no activity; inhibition of [3H]colchicine binding to tubulin (tubulin [3]): without success
COc1ccc2c(c1OC)C(=O)O[C@@H]2[C@H]1c2c(c(Br)c3c(c2OC)OCO3)CCN1C [Compound 2, 9′-bromonoscapine, reference compound] | > 200 µM | 70–80% | strongly decreased | strongly reduced | – | – | – | – | Bcl-2 expression (Bcl-2): reduced; annexin-V positive cells (apoptosis) (HeLa cells [6]): slightly more active than the other three compounds; inhibition of colchicine binding (fluorescence) (tubulin [2]): inhibition of colchicine binding
COc1ccc2c(c1OC)C(=O)O[C@@H]2[C@H]1c2c(c(C)c3c(c2OC)OCO3)CCN1C [Compound 3, 9′-Methylnoscapine] | > 200 µM | 70–80% | – | strongly reduced | increased expression | disappearance | increased | marked increase | Bcl-2 expression (Bcl-2): reduced
COc1ccc2c(c1OC)C(=O)O[C@@H]2[C@H]1c2c(c(-c3ccccc3)c3c(c2OC)OCO3)CCN1C [Compound 4, 9′-Phenylnoscapine] | > 200 µM | – | strongly decreased | strongly reduced | increased expression | disappearance | increased | marked increase | cdc25C forms (cdc25C): slower migrating forms
COc1ccc2c(c1OC)C(=O)O[C@@H]2[C@H]1c2c(c(-c3ccc(C)cc3)c3c(c2OC)OCO3)CCN1C [Compound 5, 9′-(4-Methylphenyl)-noscapine] | > 200 µM | – | strongly decreased | – | increased expression | disappearance | increased | marked increase | cdc25C forms (cdc25C): slower migrating forms
COc1ccccc1-c1c2c(c(OC)c3c1OCO3)[C@H]([C@H]1OC(=O)c3c1ccc(OC)c3OC)N(C)CC2 [Compound 6, 9′-(2-Methoxyphenyl)-noscapine] | > 200 µM | – | – | – | – | – | – | – | –
COc1cccc(-c2c3c(c(OC)c4c2OCO4)[C@H]([C@H]2OC(=O)c4c2ccc(OC)c4OC)N(C)CC3)c1 [Compound 7, 9′-(3-Methoxyphenyl)-noscapine] | > 200 µM | 70–80% | – | – | – | – | – | – | –
COc1ccc(-c2c3c(c(OC)c4c2OCO4)[C@H]([C@H]2OC(=O)c4c2ccc(OC)c4OC)N(C)CC3)cc1 [Compound 8, 9′-(4-Methoxyphenyl)-noscapine] | > 200 µM | – | – | – | – | – | – | – | –
COc1ccc2c(c1OC)C(=O)O[C@@H]2[C@H]1c2c(c(-c3ccc4ccccc4c3)c3c(c2OC)OCO3)CCN1C [Compound 9, 9′-(2-Naphthyl)-noscapine] | > 200 µM | – | – | – | – | – | – | – | –
